Reference: ChEMBL document CHEMBL1130320, “Hypoxia-selective antitumor agents. 15. Modification of rate of nitroreduction and extent of lysosomal uptake by polysubstitution of 4-(alkylamino)-5-nitroquinoline bioreductive drugs” (J Med Chem, 1997)

Columns and labels:
[1] = tested on: CHO-AA8; assay: cells; conditions: Cricetulus griseus, CHO-AA8, 18 h
Description: Growth inhibition of aerobic AA8 cells, after 18 hours exposure

[2] = physchem; conditions: aqueous solution
Description: Affinity constant determined in aqueous solution

[3] = physchem; conditions: aqueous solution; remark: listed apart in the source
Description: Pka was determined in aqueous solution

SMILES	IC50 [1]	pKa [2]	pKa [3]
O=[N+]([O-])c1cccc2nccc(NCCN3CCOCC3)c12	18 µM	6.78	
Cc1cc(C)c2nccc(NCCCN(C)C)c2c1[N+](=O)[O-]	74 µM	6.37	
COc1ccc([N+](=O)[O-])c2c(NCC(O)CO)ccnc12 (configuration not stated)	50 µM	7.1	
Cc1ccc([N+](=O)[O-])c2c(NCCCN(C)C)cc(-c3ccccc3)nc12	12 µM	5.43	
Cc1cnc2ccc(C)c([N+](=O)[O-])c2c1NCCCN(C)C	201 µM		6.07
COc1ccc([N+](=O)[O-])c2c(NCCCN(C)C)c(C)c(C)nc12	166 µM	6.64	
O=[N+]([O-])c1cccc2nccc(NCCCO)c12	26 µM	7.06	
CCCCNc1ccnc2cccc([N+](=O)[O-])c12	9.6 µM	7.18	
Cc1ccc([N+](=O)[O-])c2c(NCC(O)CO)ccnc12 (configuration not stated)	110 µM	7.2	
Cc1nc2cccc([N+](=O)[O-])c2c(NCCCN(C)C)c1C	47 µM	6.64	
COc1cc(OC)c2nccc(NCCCN(C)C)c2c1[N+](=O)[O-]	186 µM	6.25	
Cc1cnc2c(C)ccc([N+](=O)[O-])c2c1NCCCN(C)C	277 µM	6.1	
CCc1ccc2nccc(NCCCN(C)C)c2c1[N+](=O)[O-]	108 µM	6.2	
Cc1nc2c(C)ccc([N+](=O)[O-])c2c(NCCCN(C)C)c1C	113 µM	6.67	
CN(C)CCNC(=O)c1ccc(NNc2ccnc3cccc([N+](=O)[O-])c23)cc1	13 µM		5.08
O=[N+]([O-])c1cccc2nccc(NCC(O)CO)c12 (configuration not stated)	33 µM	6.81	
